Assay results: patent US9498483B2, “2,3,5-trisubstituted thiophene compounds and uses thereof” (priority 2010, dated 2016)

Assays:
[1] = test system: HCV replicon I389luc-ubi-neo/NS3-3′/ET in ET (Huh-lucubineo-ET) cells; assay: Replicon assay (Biological Example 2), luciferase readout; assay type: cell-based; conditions: Hepatitis C virus
How it was run: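 EC50 values come from Hill fits of % inhibition of replicon-driven firefly luciferase, relative to no-compound wells. Compounds were serially diluted (10 points, 3-fold, 0.1 nM–50 μM final, 0.5% DMSO) onto ET replicon cells and read after 48 h.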

HCV polymerase = target: T1, HCV polymerase (Hepatitis C virus genotype 1b, UniProt Q9WMX2); assay: Polymerase assay of Biological Example 1 (IC50 values of Table 3); assay type: biochemical; conditions: IC50 values of Table 3, polymerase assay of Biological Example 1; read-out: NS5B-enzyme3
T1 construct: (His)6 (C); made in house; host or cells: XL-1 cells (E. coli, by own knowledge)

[2] = ET cells, luciferase activity 48 hours after compound

| Compound | IC50 ([1]; between 100 nM and 5.0 uM) [µM] | IC50 (HCV polymerase) [µM] | IC50 [1, 2] [µM] |
| --- | --- | --- | --- |
| O=C(O)c1sc(-c2ccccc2)cc1N1C(=O)CN(S(=O)(=O)c2ccc(N(CCO)CCO)nc2)CC1C1CCCCC1 (stereo not drawn) [Compound 83, 3-(4-{6-[Bis-(2-hydroxy-ethyl)-amino]-pyridine-3-sulfonyl}-2-cyclohexyl-6-oxo-piperazin-1-yl)-5-phenyl-thiophene-2-carboxylic acid] | 0.1 to 5 | 0.003 |  |
| O=C(O)c1sc(-c2ccccc2)cc1N1C(=O)CN(S(=O)(=O)c2ccc(N3CCCCC3)nc2)CC1C1CCCCC1 (stereo not drawn) [Compound 84, 3-[2-Cyclohexyl-6-oxo-4-(3,4,5,6-tetrahydro-2H-[1,2′]bipyridinyl-5′-sulfonyl)-piperazin-1-yl]-5-phenyl-thiophene-2-carboxylic acid] |  | 0.004 | ≤ 0.1 |
| CC(C)Nc1ccc(S(=O)(=O)N2CC(=O)N(c3cc(-c4ccccc4)sc3C(=O)O)C(C3CCCCC3)C2)cn1 (stereo not drawn) [Compound 85, 3-[2-Cyclohexyl-4-(6-isopropylamino-pyridine-3-sulfonyl)-6-oxo-piperazin-1-yl]-5-phenyl-thiophene-2-carboxylic acid] |  | 0.002 | ≤ 0.1 |
| O=C(O)c1sc(-c2ccccc2)cc1N1C(=O)CN(S(=O)(=O)c2ccc(NCCO)nc2)CC1C1CCCCC1 (stereo not drawn) [Compound 86, 3-{2-Cyclohexyl-4-[6-(2-hydroxy-ethylamino)-pyridine-3-sulfonyl]-6-oxo-piperazin-1-yl}-5-phenyl-thiophene-2-carboxylic acid] |  | 0.006 | ≤ 0.1 |
| CC1CN(c2ccc(S(=O)(=O)N3CC(=O)N(c4cc(-c5ccccc5)sc4C(=O)O)C(C4CCCCC4)C3)cn2)CC(C)O1 (stereo not drawn) [Compound 87, 3-{2-Cyclohexyl-4-[6-(2,6-dimethyl-morpholin-4-yl)-pyridine-3-sulfonyl]-6-oxopiperazin-1-yl}-5-phenyl-thiophene-2-carboxylic acid] |  | 0.005 | ≤ 0.1 |
| O=C(O)c1sc(-c2ccccc2)cc1N1C(=O)CN(S(=O)(=O)c2ccc(N3CCNCC3)nc2)CC1C1CCCCC1 (stereo not drawn) [Compound 88, 3-[2-Cyclohexyl-6-oxo-4-(6-piperazin-1-yl-pyridine-3-sulfonyl)-piperazin-1-yl]-5-phenyl-thiophene-2-carboxylic acid] |  | 0.00213 | ≤ 0.1 |
| CC(=O)N1CCN(c2ccc(S(=O)(=O)N3CC(=O)N(c4cc(-c5ccccc5)sc4C(=O)O)C(C4CCCCC4)C3)cn2)CC1 (stereo not drawn) [Compound 89, 3-{4-[6-(4-Acetyl-piperazin-1-yl)-pyridine-3-sulfonyl]-2-cyclohexyl-6-oxo-piperazin-1-yl}-5-phenyl-thiophene-2-carboxylic acid] |  | 0.003 | ≤ 0.1 |
| O=C(O)c1sc(-c2ccccc2)cc1N1C(=O)CN(S(=O)(=O)c2ccc(NC3CCOCC3)nc2)CC1C1CCCCC1 (stereo not drawn) [Compound 90, 3-{2-Cyclohexyl-6-oxo-4-[6-(tetrahydro-pyran-4-ylamino)-pyridine-3-sulfonyl]-piperazin-1-yl}-5-phenyl-thiophene-2-carboxylic acid] |  | 0.004 | ≤ 0.1 |
| CN(c1ccc(S(=O)(=O)N2CC(=O)N(c3cc(-c4ccccc4)sc3C(=O)O)C(C3CCCCC3)C2)cn1)C1CCCCC1 (stereo not drawn) [Compound 91, 3-{2-Cyclohexyl-4-[6-(cyclohexyl-methyl-amino)-pyridine-3-sulfonyl]-6-oxo-piperazin-1-yl}-5-phenyl-thiophene-2-carboxylic acid] |  | 0.012 | ≤ 0.1 |
| CC1CCC(C)N1c1ccc(S(=O)(=O)N2CC(=O)N(c3cc(-c4ccccc4)sc3C(=O)O)C(C3CCCCC3)C2)cn1 (stereo not drawn) [Compound 92, 3-{2-Cyclohexyl-4-[6-(2,5-dimethyl-pyrrolidin-1-yl)-pyridine-3-sulfonyl]-6-oxo-piperazin-1-yl}-5-phenyl-thiophene-2-carboxylic acid] |  | 0.004 | ≤ 0.1 |
| O=C(O)c1sc(-c2ccccc2)cc1N1C(=O)CN(S(=O)(=O)c2ccc(N3CCC(O)CC3)nc2)CC1C1CCCCC1 (stereo not drawn) [Compound 93, 3-[2-Cyclohexyl-4-(4-hydroxy-3,4,5,6-tetrahydro-2H-[1,2′]bipyridinyl-5′-sulfonyl)-6-oxo-piperazin-1-yl]-5-phenyl-thiophene-2-carboxylic acid] |  | 0.004 | ≤ 0.1 |
| COC1CCN(c2ccc(S(=O)(=O)N3CC(=O)N(c4cc(-c5ccccc5)sc4C(=O)O)C(C4CCCCC4)C3)cn2)CC1 (stereo not drawn) [Compound 94, 3-[2-Cyclohexyl-4-(4-methoxy-3,4,5,6-tetrahydro-2H-[1,2′]bipyridinyl-5′-sulfonyl)-6-oxo-piperazin-1-yl]-5-phenyl-thiophene-2-carboxylic acid] |  | 0.002 | ≤ 0.1 |
| O=C(O)c1sc(-c2ccccc2)cc1N1C(=O)CN(S(=O)(=O)c2ccc(N3CCC(F)(F)CC3)nc2)CC1C1CCCCC1 (stereo not drawn) [Compound 95, 3-[2-Cyclohexyl-4-(4,4-difluoro-3,4,5,6-tetrahydro-2H-[1,2′]bipyridinyl-5′-sulfonyl)-6-oxo-piperazin-1-yl]-5-phenyl-thiophene-2-carboxylic acid] |  | 0.005 | ≤ 0.1 |
| N#Cc1cccc(S(=O)(=O)N2CC(=O)N(c3cc(-c4ccccc4)sc3C(=O)O)[C@H](C3CCCCC3)C2)c1 [Compound 97, 3-[(R)-4-(3-Cyano-benzenesulfonyl)-2-cyclohexyl-6-oxo-piperazin-1-yl]-5-phenyl-thiophene-2-carboxylic acid] | 0.1 to 5 | 0.027 |  |
| CNC(=O)c1ccc(S(=O)(=O)N2CC(=O)N(c3cc(-c4ccccc4)sc3C(=O)O)C(C3CCCCC3)C2)cc1 (stereo not drawn) [Compound 98, 3-[2-Cyclohexyl-4-(4-methylcarbamoyl-benzenesulfonyl)-6-oxo-piperazin-1-yl]-5-phenyl-thiophene-2-carboxylic acid] | 0.1 to 5 | 0.003 |  |
| CN1CCOc2cc(S(=O)(=O)N3CC(=O)N(c4cc(-c5ccccc5)sc4C(=O)O)C(C4CCCCC4)C3)cnc21 (stereo not drawn) [Compound 99, 3-[2-Cyclohexyl-4-(4-methyl-3,4-dihydro-2H-pyrido[3,2-b][1,4]oxazine-7-sulfonyl)-6-oxo-piperazin-1-yl]-5-phenyl-thiophene-2-carboxylic acid] |  | 0.002 | ≤ 0.1 |
| CC(C)c1ccc(S(=O)(=O)N2CC(=O)N(c3cc(-c4ccccc4)sc3C(=O)O)C(C3CCCCC3)C2)cc1 (stereo not drawn) [Compound 100, 3-[2-Cyclohexyl-4-(4-isopropyl-benzenesulfonyl)-6-oxo-piperazin-1-yl]-5-phenyl-thiophene-2-carboxylic acid] | 0.1 to 5 | 0.004 |  |
| O=C(O)c1sc(-c2ccccc2)cc1N1C(=O)CN(S(=O)(=O)c2ccc(-n3cccn3)cc2)CC1C1CCCCC1 (stereo not drawn) [Compound 101, 3-[2-Cyclohexyl-6-oxo-4-(4-pyrazol-1-yl-benzenesulfonyl)-piperazin-1-yl]-5-phenyl-thiophene-2-carboxylic acid] | 0.1 to 5 | 0.011 |  |
| COc1ccc(S(=O)(=O)N2CC(=O)N(c3cc(-c4ccccc4)sc3C(=O)O)C(C3CCCCC3)C2)cc1OC (stereo not drawn) [Compound 102, 3-[2-Cyclohexyl-4-(3,4-dimethoxy-benzenesulfonyl)-6-oxo-piperazin-1-yl]-5-phenyl-thiophene-2-carboxylic acid] | 0.1 to 5 | 0.0045 |  |
| COc1ccc(S(=O)(=O)N2CC(=O)N(c3cc(-c4ccccc4)sc3C(=O)O)C(C3CCCCC3)C2)cc1 (stereo not drawn) [Compound 103, 3-[2-Cyclohexyl-4-(4-methoxy-benzenesulfonyl)-6-oxo-piperazin-1-yl]-5-phenyl-thiophene-2-carboxylic acid] | 0.1 to 5 | 0.002 |  |
| O=C(O)c1sc(-c2ccccc2)cc1N1C(=O)CN(S(=O)(=O)c2cccc(F)c2)CC1C1CCCCC1 (stereo not drawn) [Compound 104, 3-[2-Cyclohexyl-4-(3-fluoro-benzenesulfonyl)-6-oxo-piperazin-1-yl]-5-phenyl-thiophene-2-carboxylic acid] | 0.1 to 5 | 0.021 |  |
| CC(C)(C)c1ccc(S(=O)(=O)N2CC(=O)N(c3cc(-c4ccccc4)sc3C(=O)O)C(C3CCCCC3)C2)cc1 (stereo not drawn) [Compound 105, 3-[4-(4-tert-Butyl-benzenesulfonyl)-2-cyclohexyl-6-oxo-piperazin-1-yl]-5-phenyl-thiophene-2-carboxylic acid] | 0.1 to 5 | 0.002 |  |
| O=C(O)c1sc(-c2ccccc2)cc1N1C(=O)CN(S(=O)(=O)c2ccc(OC(F)F)cc2)CC1C1CCCCC1 (stereo not drawn) [Compound 106, 3-[2-Cyclohexyl-4-(4-difluoromethoxy-benzenesulfonyl)-6-oxo-piperazin-1-yl]-5-phenyl-thiophene-2-carboxylic acid] | 0.1 to 5 | 0.014 |  |
| COc1cccc(S(=O)(=O)N2CC(=O)N(c3cc(-c4ccccc4)sc3C(=O)O)[C@H](C3CCCCC3)C2)c1 [Compound 107, 3-[(R)-2-Cyclohexyl-4-(3-methoxy-benzenesulfonyl)-6-oxo-piperazin-1-yl]-5-phenyl-thiophene-2-carboxylic acid] | 0.1 to 5 | < 0.001 |  |
| O=C(O)c1sc(-c2ccccc2)cc1N1C(=O)CN(S(=O)(=O)c2cccnc2)CC1C1CCCCC1 (stereo not drawn) [Compound 108, 3-[2-Cyclohexyl-6-oxo-4-(pyridine-3-sulfonyl)-piperazin-1-yl]-5-phenyl-thiophene-2-carboxylic acid] | 0.1 to 5 | 0.037 |  |
| O=C(O)c1sc(-c2ccccc2)cc1N1C(=O)CN(S(=O)(=O)c2ccc(F)cc2)CC1C1CCCCC1 (stereo not drawn) [Compound 109, 3-[2-Cyclohexyl-4-(4-fluoro-benzenesulfonyl)-6-oxo-piperazin-1-yl]-5-phenyl-thiophene-2-carboxylic acid] | 0.1 to 5 | 0.03 |  |
| O=C(O)c1sc(-c2ccccc2)cc1N1C(=O)CN(S(=O)(=O)c2cccc3ccccc23)CC1C1CCCCC1 (stereo not drawn) [Compound 110, 3-[2-Cyclohexyl-4-(naphthalene-1-sulfonyl)-6-oxo-piperazin-1-yl]-5-phenyl-thiophene-2-carboxylic acid] |  | 0.183 | ≥ 5 |
